Target: E3 ubiquitin-protein ligase XIAP (Homo sapiens, UniProt P98170)
Test: Binding affinity for the recombinant XIAP BIR3 protein in displacing a fluorescently labeled Smac peptide

Sequence of E3 ubiquitin-protein ligase XIAP (P98170 whole entry): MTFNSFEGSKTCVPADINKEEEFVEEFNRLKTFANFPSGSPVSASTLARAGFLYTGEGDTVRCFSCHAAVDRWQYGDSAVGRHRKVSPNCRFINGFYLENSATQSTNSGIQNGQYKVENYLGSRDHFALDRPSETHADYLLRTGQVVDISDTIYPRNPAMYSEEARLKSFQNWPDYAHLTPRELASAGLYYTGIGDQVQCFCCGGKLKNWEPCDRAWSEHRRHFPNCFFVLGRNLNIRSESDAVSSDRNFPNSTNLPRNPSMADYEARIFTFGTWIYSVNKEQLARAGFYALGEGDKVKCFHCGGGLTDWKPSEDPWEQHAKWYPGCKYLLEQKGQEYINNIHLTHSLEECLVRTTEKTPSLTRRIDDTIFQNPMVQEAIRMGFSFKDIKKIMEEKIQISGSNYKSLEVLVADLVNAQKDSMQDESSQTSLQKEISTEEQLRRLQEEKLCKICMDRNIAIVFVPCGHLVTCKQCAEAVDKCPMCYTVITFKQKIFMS

| Ki [µM] | Structure (SMILES) |
| --- | --- |
| > 100 | CCC[C@H](N)C(=O)NC1CC[C@H]2CC[C@@H](C(=O)NCc3ccccc3)N2C1=O (some centres not stated) |
| > 100 | C[C@H](N)C(=O)NC1CC[C@H]2CC[C@@H](C(=O)Nc3ccccc3)N2C1=O (some centres not stated) |
